Measured values from patent US8163909B2, “Substituted hydroxyethyl amine compounds as beta-secretase modulators and methods of use” (Amgen Inc., priority 2007, dated 2012).
Where two headings read alike, the source gives them in different places.

How the values were obtained:
[1] = target: Beta Secretase enzyme (BACE) (Homo sapiens, UniProt P56817); experiment: In vitro enzymatic BACE FRET (fluorescence resonance energy transfer) assay; type: biochemical;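 also: fluorescence read after 1 h with 50 nM quenched peptide substrate spanning the BACE cleavage site, in pH 4.2 acetate buffer containing 10% DMSO and nonionic detergent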
[2] = system: Aβ40 in conditioned medium of cells stably expressing Amyloid Precursor Protein (APP); experiment: In vitro BACE cell-based assay (Aβ40 in conditioned medium, sandwich ELISA); details: Homo sapiens;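 also: compounds added as a dilution series, secreted peptide quantified by europium time-resolved fluorescence readout, potency fitted from percent of control versus compound concentration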
[3] = Microsomal stability assay, rat liver microsomes;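 also: rat liver microsomes (0.25 mg/mL) with about 1 µM compound plus 1 mM NADPH, pH 7.4, 37 °C for 30 min, parent left measured by LC-MS/MS against 0 min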
[4] = Microsomal stability assay, human liver microsomes;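 also: pooled human liver microsomes at 0.25 mg/mL with 1 µM compound and NADPH at 37 °C, pH 7.4, for 30 min, unchanged parent quantified by LC-MS/MS against the 0 min sample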
CYP2D6 = CYP2D6 (Homo sapiens, UniProt P10635); experiment: CYP2D6 inhibition assay (bufuralol, pooled human liver microsomes)
[5] = read-out: BACE1 FRET assay (IC50)
[6] = HEK293, HEK cells, read-out: HEK cell assay (IC50)
[7] = BACE enzyme assay, IC50's in uM, read-out: BACE1 FRET assay
[8] = HEK293, cell-based assay, HEK cells, IC50's in uM, read-out: HEK cell assay
[9] = 2D6 IC50, CYP enzyme inhibition
[10] = BACE enzyme assay, read-out: BACE1 FRET assay
[11] = HEK293, HEK cells, read-out: HEK cell assay
[12] = 2D6 IC50 (uM), CYP enzyme inhibition
[13] = BACE enzyme assay IC50, read-out: BACE1 FRET assay
[14] = HEK293, HEK cell-based assay IC50, read-out: HEK cell assay
[15] = 2D6 IC50 (uM), CYP2D6 inhibition
[16] = Table 2, read-out: BACE1 FRET assay
[17] = HEK293, Table 2, HEK cells, read-out: HEK cell assay

Chain of CYP2D6 (P10635 whole entry): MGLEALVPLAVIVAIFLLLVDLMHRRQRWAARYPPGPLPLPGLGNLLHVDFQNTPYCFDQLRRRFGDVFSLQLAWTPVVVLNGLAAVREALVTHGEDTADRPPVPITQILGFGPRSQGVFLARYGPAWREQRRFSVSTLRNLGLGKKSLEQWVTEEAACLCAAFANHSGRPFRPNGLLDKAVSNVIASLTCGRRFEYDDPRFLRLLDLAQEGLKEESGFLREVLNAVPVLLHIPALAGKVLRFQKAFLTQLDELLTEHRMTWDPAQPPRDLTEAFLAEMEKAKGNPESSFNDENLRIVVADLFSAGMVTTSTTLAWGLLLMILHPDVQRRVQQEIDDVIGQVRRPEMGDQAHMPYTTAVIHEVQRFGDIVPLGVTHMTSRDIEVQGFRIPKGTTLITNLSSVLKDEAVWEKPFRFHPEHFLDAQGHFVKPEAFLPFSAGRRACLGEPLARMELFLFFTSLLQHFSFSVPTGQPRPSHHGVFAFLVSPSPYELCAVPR
Chain of Beta Secretase enzyme (BACE) (P56817 46-501): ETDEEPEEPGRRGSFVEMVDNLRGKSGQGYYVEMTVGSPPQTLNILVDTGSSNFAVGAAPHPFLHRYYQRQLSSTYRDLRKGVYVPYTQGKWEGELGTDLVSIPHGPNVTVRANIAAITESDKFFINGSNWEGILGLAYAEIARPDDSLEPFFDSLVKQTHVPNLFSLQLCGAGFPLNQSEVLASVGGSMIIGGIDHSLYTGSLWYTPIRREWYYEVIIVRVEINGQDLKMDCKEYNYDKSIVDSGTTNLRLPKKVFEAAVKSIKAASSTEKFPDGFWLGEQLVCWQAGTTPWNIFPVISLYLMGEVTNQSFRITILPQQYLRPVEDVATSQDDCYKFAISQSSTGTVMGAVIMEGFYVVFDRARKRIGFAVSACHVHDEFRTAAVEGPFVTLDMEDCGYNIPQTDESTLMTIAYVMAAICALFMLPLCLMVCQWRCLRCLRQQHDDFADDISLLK

IC50 [1, 5] [µM] | IC50 [2, 6] [µM] | RLM ([3]; rat liver microsomes) [µL/min/mg] | HLM ([4]; human liver microsomes) [µL/min/mg] | IC50 (CYP2D6; 2D6 IC50, CYP2D6 inhibition) [µM] | RLM ([3]; rat liver microsomal data) [µL/min/mg] | HLM ([4]; human liver microsomal data) [µL/min/mg] | SMILES | further results
 |  |  |  |  | 76 | 41 | C#Cc1cccc(C[C@H](NC(=O)[C@@H]2CCCO2)[C@H](O)CN[C@H]2CC3(CCC3)Oc3ncc(CC(C)(C)C)cc32)c1F [compound 913] | IC50 [1, 7]: 0.021 µM; IC50 [2, 8]: 0.063 µM; IC50 (CYP2D6; [9]): 7.1 µM
 |  |  |  |  | 140 | 29 | CCO[C@@H](C)C(=O)N[C@@H](Cc1ccc2c(c1)OCO2)[C@H](O)CN[C@H]1CC2(CCC2)Oc2ncc(CC(C)(C)C)cc21 [compound 888] | IC50 [1, 7]: 0.213 µM; IC50 [2, 8]: 1.55 µM; IC50 (CYP2D6; [9]): 3.4 µM
 |  |  |  |  | 73 | 45 | C#Cc1cccc(C[C@H](NC(=O)[C@H]2CCCO2)[C@H](O)CN[C@H]2CC3(CCC3)Oc3ncc(CC(C)(C)C)cc32)c1 [compound 896] | IC50 [1, 7]: 0.006 µM; IC50 [2, 8]: 0.009 µM; IC50 (CYP2D6; [9]): 3.8 µM
 |  |  |  |  | 60 | 35 | C#Cc1cccc(C[C@H](NC(=O)[C@@H](C)OC)[C@H](O)CN[C@H]2CC3(CCC3)Oc3ncc(CC(C)(C)C)cc32)c1F [compound 912] | IC50 [1, 7]: 0.013 µM; IC50 [2, 8]: 1.19 µM; IC50 (CYP2D6; [9]): 6.3 µM
 |  |  |  |  | 60 | 36 | C#Cc1cc(C[C@H](NC(=O)CC)[C@H](O)CN[C@H]2CC3(CCC3)Oc3ncc(CC(C)(C)C)cc32)ccc1F [compound 848] | IC50 [1, 7]: 0.005 µM; IC50 [2, 8]: 0.019 µM; IC50 (CYP2D6; [9]): 0.9 µM
 |  |  |  |  | 119 | 66 | COCC(=O)N[C@@H](Cc1cc(F)cc(-c2nccs2)c1)[C@H](O)CN[C@]1(C)CC2(CCC2)Oc2ncc(CC(C)(C)C)cc21 [compound 867] | IC50 [1, 7]: 1.21 µM; IC50 [2, 8]: 1.15 µM; IC50 (CYP2D6; [9]): 0.7 µM
 |  | 36 | 51 |  |  |  | CC(=O)N[C@@H](Cc1cc(F)cc(F)c1)[C@H](O)CN[C@H]1CC2(CCC2)Oc2c1cc(C1CC1)cc2-n1ccnc1 [compound 705] | IC50 [1, 13]: 0.032 µM; IC50 [2, 14]: 0.013 µM; IC50 (CYP2D6; [15]): 0.6 µM

The remaining lines, values behind:

SMILES | IC50 [1, 5] [µM] | IC50 [2, 6] [µM] | RLM ([3]; rat liver microsomes) [µL/min/mg] | HLM ([4]; human liver microsomes) [µL/min/mg] | IC50 (CYP2D6; 2D6 IC50, CYP2D6 inhibition) [µM] | RLM ([3]; rat liver microsomal data) [µL/min/mg] | HLM ([4]; human liver microsomal data) [µL/min/mg] | further results
CC(=O)N[C@@H](Cc1cccc(F)c1)[C@H](O)CN[C@H]1CC2(CCC2)Oc2c(-c3ccncc3)cc(CC(C)(C)C)cc21 [compound 592] | 0.01 | 0.004 | 73 | 14 | 1.7 |  |  | 
CO[C@H](C)C(=O)N[C@@H](Cc1cncs1)[C@H](O)CN[C@H]1CC2(CCC2)Oc2c(-c3ccncc3)cc(CC(C)(C)C)cc21 [compound 632] | 0.065 | 0.015 | 166 | 57 | 3.1 |  |  | 
COCC(=O)N[C@@H](Cc1ccccc1)[C@H](O)CN[C@H]1CC2(CCC2)Oc2c(-c3cncn3C)cc(CC(C)C)cc21 [compound 635] | 0.074 | 0.01 | 420 | 44 | 4.1 |  |  | 
CC(=O)N[C@@H](Cc1cccc(F)c1)[C@H](O)CN[C@H]1CC2(CCC2)Oc2c1cc(Cl)cc2-n1ccnc1 [compound 594] | 0.158 | 0.077 | 61 | 44 | 0.3 |  |  | 
CO[C@H](C)C(=O)N[C@@H](Cc1cc(F)cc(F)c1)[C@H](O)CN[C@H]1CC2(CCC2)Oc2c1cc(CC(C)(C)C)nc2-c1ccncc1 [compound 583] | 0.015 | 0.03 | 80 | 14 | 1.2 |  |  | 
CO[C@H](C)C(=O)N[C@@H](Cc1ccc(F)cc1)[C@H](O)CN[C@H]1CC2(CCC2)Oc2c(-c3ccncc3)cc(CC(C)C)cc21 [compound 606] | 0.041 | 0.026 | 85 | 51 | 2 |  |  | 
CO[C@H](C)C(=O)N[C@@H](Cc1cccc(F)c1)[C@H](O)CN[C@H]1CC2(CCC2)Oc2c1cc(CC(C)(C)C)nc2-c1ccncc1 [compound 533] |  |  |  |  |  | 163 | 29 | IC50 [1, 10]: 0.013 µM; IC50 [2, 11]: 0.044 µM; IC50 (CYP2D6; [12]): 1.4 µM
C#Cc1cc(F)cc(C[C@H](NC(=O)[C@@H](C)OC)[C@H](O)CN[C@H]2CC3(CCC3)Oc3ncc(CC(C)(C)C)cc32)c1 [Example 834, (2R)-N-((1S,2R)-3-(((4′S)-6′-(2,2-dimethylpropyl)-3′,4′-dihydrospiro[cyclobutane-1,2′-pyrano[2,3-b]pyridin]-4′-yl)amino)-1-(3-ethynyl-5-fluorobenzyl)-2-hydroxypropyl)-2-methoxypropanamide] |  |  |  |  |  | 98 | 37 | IC50 [1, 7]: 0.005 µM; IC50 ([2]; HEK293, HEK cell-based assay, IC50's in uM, read-out: HEK cell assay): 0.011 µM; IC50 (CYP2D6; [12]): 2.5 µM
CO[C@H](C)C(=O)N[C@@H](Cc1cc(F)cc(F)c1)[C@H](O)CN[C@H]1CC2(CCC2)Oc2c(-c3cncn3C)cc(CC(C)C)cc21 [compound 622] | 0.026 | 0.007 | 161 | 32 | 6.6 |  |  | 
COCC(=O)N[C@@H](Cc1cccc(F)c1)[C@H](O)CN[C@H]1CC2(CCC2)Oc2c(-c3ccncc3)cc(CC(C)C)cc21 [compound 607] | 0.01 | 0.007 | 72 | 65 | 1.7 |  |  | 
CO[C@H](C)C(=O)N[C@@H](Cc1cc(F)cc(F)c1)[C@H](O)CN[C@H]1CC2(CCC2)Oc2c(-c3ccncc3)cc(CC(C)C)cc21 [compound 587] | 0.012 | 0.006 | 73 | 29 | 2.1 |  |  | 
COCC(=O)N[C@@H](Cc1ccccc1)[C@H](O)CN[C@H]1CC2(CCC2)Oc2c(-c3ccncc3)cc(CC(C)C)cc21 [compound 603] | 0.01 | 0.01 | 172 | 76 | 2.7 |  |  | 
COCC(=O)N[C@@H](Cc1cc(F)cc(F)c1)[C@H](O)CN[C@H]1CC2(CCC2)Oc2c1cc(CC(C)C)nc2-c1ccncc1 [compound 682] |  |  | 113 | 34 |  |  |  | IC50 [1, 13]: 0.009 µM; IC50 [2, 14]: 0.011 µM; IC50 (CYP2D6; [15]): 1.1 µM
CO[C@H](C)C(=O)N[C@@H](Cc1cc(F)cc(F)c1)[C@H](O)CN[C@H]1CC2(CCC2)Oc2c1cc(CC(C)C)cc2-n1ccnc1 [compound 461] |  |  |  |  |  | 126 | 28 | IC50 [1, 16]: 0.026 µM; IC50 [2, 17]: 0.028 µM; IC50 (CYP2D6; [9]): 2.2 µM
COCC(=O)N[C@@H](Cc1ccc2c(c1)OCO2)[C@H](O)CN[C@H]1CC2(CCC2)Oc2ccc(C[C@@H](C)F)cc21 [compound 558] |  |  |  |  |  | 362 | 167 | IC50 [1, 10]: 0.25 µM; IC50 [2, 11]: 0.336 µM
CO[C@@H](C)C(=O)N[C@@H](Cc1ccc2c(c1)OCO2)[C@H](O)CN[C@H]1CC2(CCC2)Oc2c1cc(CC(C)(C)C)nc2N(C)C [compound 443] |  |  |  |  |  | 232 | 190 | IC50 [1, 16]: 0.065 µM; IC50 [2, 17]: 0.175 µM
COCC(=O)N[C@@H](Cc1cc(F)cc(F)c1)[C@H](O)CN[C@H]1CC2(CCC2)Oc2c1cc(Cl)cc2-n1ccnc1 [compound 581] | 0.081 | 0.075 | 124 | 91 |  |  |  | 
